According to patent US6693115B2, “Acid addition salts of hydropyridine derivatives” (Sankyo Company, Limited, priority 2000, dated 2004):

How the values were obtained:
[1] = system: ADP-induced platelet aggregation; experiment: Inhibitory effect on platelet aggregation (fasting), ex vivo PRP after oral administration; type: in vivo, male beagle dogs; conditions: Table 4, fasted dogs, oral 1.0 mg/kg, ADP 20 μM, mean ± standard deviation; for Inhibition (%) of platelet aggregation 2 hours: 2 hours after administration; for Inhibition (%) of platelet aggregation 4 hours: 4 hours after administration
Method: Inhibitory Effect on Platelet Aggregation (Fasting)
For this test, male beagle dogs (about 10 kg in body weight, purchased from Kasho Co., Ltd. and Nippon Nosan Kogyo K.K.) were used. One group consisted of 3 dogs. The platelet aggregation was measured using an automated platelet aggregometer (“PAM-6C”, trade name; a product of Mebanix Corporation) in accordance with the method of Born, et al. (J. Physiol., 168, 178(1963)) with a partial modification.
From the cephalic vein of each dog fasted overnight, 5.4 ml of the blood was collected using sodium citrate (0.6 ml, 3.8% (w/v)) as an anticoagulant. The resulting citrate-added blood was centrifuged (240 g, 20 minutes) to separate platelet-rich plasma (hereinafter referred to as “PRP”) and platelet-poor plasma (hereinafter referred to as “PPP”). After the number of platelets in PRP was counted by an automatic hematology analyzer (“K-1000”, trade name; a product of Sysmex Corporation), PPP was added to adjust the number of platelets to 3×10^8/ml. PRP (240 μl) dispensed in a cuvette was set on the automatic platelet aggregometer. After preheating (at 37° C.) for 1 minute, 10 μl of ADP (final concentration: 20 μM) was added to cause platelet aggregation. For 10 minutes, platelet aggregation was measured and the maximum aggregation was determined to give the pre-administration value.
(§1) On the next day, each test compound filled in a gelatin capsule was orally administered to the dogs. The blood was collected each of 2 and 4 hours after administration. The platelet aggregation of PRP was measured, whereby the maximum aggregation was determined. The inhibition (%) of platelet aggregation by the test compound was calculated by comparing it with the pre-administration value.
In this table, the term “maleate” means 2-acetoxy-5-(α-cyclopropylcarbonyl-2-fluorobenzyl)-4,5,6,7-tetrahydrothieno[3,2-c]pyridine maleate obtained in Example 2, while the term “free form” means 2-acetoxy-5-(α-cyclopropylcarbonyl-2-fluorobenzyl)-4,5,6,7-tetrahydrothieno[3,2-c]pyridine.

[2] = system: ADP-induced platelet aggregation; experiment: Inhibitory effect on platelet aggregation (feeding), ex vivo PRP after oral administration; type: in vivo, male beagle dogs; conditions: fed dogs, oral 0.3 mg/kg, ADP 20 μM, mean ± standard deviation; for Inhibition (%) of platelet aggregation 2 hours: 2 hours after administration; for Inhibition (%) of platelet aggregation 4 hours: 4 hours after administration
Method: Inhibitory Effect on Platelet Aggregation (Feeding)
For this test, male beagle dogs (about 10 kg in body weight, purchased from Kasho Co., Ltd. and Nippon Nosan Kogyo K.K.) were used. One group consisted of 5 or 6 dogs. The platelet aggregation was measured using an automatic platelet aggregometer (“PAM-6C”, trade name; a product of Mebanix Corporation) in accordance with the method of Born, et al. (J. Physiol., 168, 178 (1963)) with a partial modification.
Each of 2.5 hours and 4.5 hours after feeding, 5.4 ml of blood was collected from the cephalic vein of each dog using sodium citrate (0.6 ml, 3.8% (w/v)) as an anticoagulant. The citrate-added blood was centrifuged (240 g, 20 minutes) to separate platelet-rich plasma (hereinafter referred to as “PRP”) and platelet-poor plasma (hereinafter referred to as “PPP”). After the number of platelets in PRP was counted by an automatic hematology analyzer (“K-1000”, trade name; a product of Sysmex Corporation), PPP was added to adjust the number of platelets to 3×10^8/ml. PRP (240 μl) dispensed in a cuvette was set on the automatic platelet aggregometer. After preheating (at 37° C.) for 1 minute, 10 μl of ADP (final concentration: 20 μM) was added to cause platelet aggregation. For 10 minutes, platelet aggregation was measured and the maximum aggregation was determined to give the pre-administration value.
as §1, with “day, 30 minutes after feeding,” for “day,”, “after the” for “after”
In these tables, the term “hydrochloride” means 2-acetoxy-5-(α-cyclopropylcarbonyl-2-fluorobenzyl)-4,5,6-7-tetrahydrothieno[3,2-c]pyridine hydrochloride obtained in Example 1, “free form” means 2-acetoxy-5-(α-cyclopropylcarbonyl-2-fluorobenzyl)-4,5,6,7-tetrahydrothieno[3,2-c]pyridine, and “maleate” means 2-acetoxy-5-(α-cyclopropylcarbonyl-2-fluorobenzyl)-4,5,6,7-tetrahydrothieno[3,2-c]pyridine maleate obtained in Example 2.

[3] = Storage stability of crystal forms; type: physicochemical; conditions: comparison between hydrochloride crystal forms

Structure (SMILES)	Inhibition (%) of platelet aggregation 2 hours [1]	Inhibition (%) of platelet aggregation 4 hours [1]	Inhibition (%) of platelet aggregation 2 hours ([2]; Table 2)	Inhibition (%) of platelet aggregation 4 hours ([2]; Table 2)	Inhibition (%) of platelet aggregation 2 hours ([2]; Table 3)	Inhibition (%) of platelet aggregation 4 hours ([2]; Table 3)	storage stability [3]
CC(=O)Oc1cc2c(s1)CCN(C(C(=O)C1CC1)c1ccccc1F)C2 (stereo not drawn) [Free form, 2-Acetoxy-5-(α-cyclopropylcarbonyl-2-fluorobenzyl)-4,5,6,7-tetrahydrothieno[3,2-c]pyridine, reference compound]	27.9 ± 24.8%	28.7 ± 24.4%	25.8 ± 10.9%	28.6 ± 14.2%	21.7 ± 9.8%	23.8 ± 12.6%	–
CC(=O)Oc1cc2c(s1)CCN(C(C(=O)C1CC1)c1ccccc1F)C2.Cl (stereo not drawn) [Hydrochloride, 2-Acetoxy-5-(α-cyclopropylcarbonyl-2-fluorobenzyl)-4,5,6,7-tetrahydrothieno[3,2-c]pyridine hydrochloride (crystal A)]	–	–	49.0 ± 18.7%	48.5 ± 18.3%	–	–	–
CC(=O)Oc1cc2c(s1)CCN(C(C(=O)C1CC1)c1ccccc1F)C2.O=C(O)/C=C\C(=O)O (stereo not drawn) [Maleate, 2-Acetoxy-5-(α-cyclopropylcarbonyl-2-fluorobenzyl)-4,5,6,7-tetrahydrothieno[3,2-c]pyridine maleate]	63.4 ± 22.9%	88.5 ± 5.7%	–	–	50.9 ± 14.5%	58.6 ± 15.7%	–
CC(=O)Oc1cc2c(s1)CCN(C(C(=O)C1CC1)c1ccccc1F)C2.Cl (stereo not drawn) [crystal B1, 2-Acetoxy-5-(α-cyclopropylcarbonyl-2-fluorobenzyl)-4,5,6,7-tetrahydrothieno[3,2-c]pyridine Hydrochloride (Crystal B1)]	–	–	–	–	–	–	more excellent storage stability than crystal A
CC(=O)Oc1cc2c(s1)CCN(C(C(=O)C1CC1)c1ccccc1F)C2.Cl (stereo not drawn) [crystal B2, 2-Acetoxy-5-(α-cyclopropylcarbonyl-2-fluorobenzyl)-4,5,6,7-tetrahydrothieno[3,2-c]pyridine hydrochloride (crystal B2)]	–	–	–	–	–	–	more excellent storage stability than crystal B1
